We go through 44 molecules from patent publication US20230123334A1, “AMINO LIPID COMPOUND, PREPARATION METHOD THEREFOR, AND APPLICATION THEREOF” (SHENZHEN SHENXIN BIOTECHNOLOGY CO., LTD., priority 2020, published 2023).

The subject of the assay is HEK293 cells. Kind of assay: Preliminary screening as mRNA vectors, EGFP mRNA transfection of HEK293 cells. Format: cell-based. To be noted: EGFP mRNA 50 ng per well, 96-well plates; percentage of GFP fluorescent cells relative to total number of cells (Hoechst). In short, it runs like this: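 Screening format: EGFP mRNA transfection (50 ng/well) into HEK293 in 10% FBS-supplemented DMEM. Percent green fluorescent cells, normalised to Hoechst nuclear count, gave the value; Lipofectamine2000 was the reference transfectant.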
`CCCCCCCCCCCCCCCCNc1nc(NCC2CCN(C)CC2)nc(SCCCCCCCCC)n1` [Compound D10S9N16]: the “Absolute mRNA transfection efficiency in HEK293 cells” value (shortened to “Absolute mRNA transfection efficiency”) was 30.2%. For `CCCCCCCCCCCCCCCCCCNc1nc(NCC2CCN(C)CC2)nc(SCCCCCCCCC)n1` [Compound D10S9N18] the value was 22.4%. For `CCCCCCCCCCSc1nc(NCCCCCC)nc(NCC2CCN(C)CC2)n1` [Compound D10S10N6] the value was 0.5%; for `CCCCCCCCCCSc1nc(NCCCCCCC)nc(NCC2CCN(C)CC2)n1` [Compound D10S10N7], 1.0%. For `CCCCCCCCCCSc1nc(NCCCCCCCC)nc(NCC2CCN(C)CC2)n1` [Compound D10S10N8] the value was 1.7%. On to `CCCCCCCCCCSc1nc(NCCCCCCCCC)nc(NCC2CCN(C)CC2)n1` [Compound D10S10N9], for which the “Absolute mRNA transfection efficiency” value is reported as 4.2%. For `CCCCCCCCCCCNc1nc(NCC2CCN(C)CC2)nc(SCCCCCCCCCC)n1` [Compound D10S10N11] the value was 8.8%. As for `CCCCCCCCCCCCNc1nc(NCC2CCN(C)CC2)nc(SCCCCCCCCCC)n1` [Compound D10S10N12], the figure is 15.5%; as for `CCCCCCCCCCCCCNc1nc(NCC2CCN(C)CC2)nc(SCCCCCCCCCC)n1` [Compound D10S10N13], 8.5%; as for `CCCCCCCCCCCCCCCNc1nc(NCC2CCN(C)CC2)nc(SCCCCCCCCCC)n1` [Compound D10S10N15], 13.2%.

As for `CCCCCCCCCCCCCCCCNc1nc(NCC2CCN(C)CC2)nc(SCCCCCCCCCC)n1` [Compound D10S10N16], the “Absolute mRNA transfection efficiency” value is 15.4%. For `CCCCCCCCCCCCCCCCCCNc1nc(NCC2CCN(C)CC2)nc(SCCCCCCCCCC)n1` [Compound D10S10N18] the value was 6.0%; for `CCCCCCCCCCCSc1nc(NCCCCCC)nc(NCC2CCN(C)CC2)n1` [Compound D10S11N6], 6.8%; for `CCCCCCCCCCCSc1nc(NCCCCCCC)nc(NCC2CCN(C)CC2)n1` [Compound D10S11N7], 18.2%. For `CCCCCCCCCCCSc1nc(NCCCCCCCC)nc(NCC2CCN(C)CC2)n1` [Compound D10S11N8] the value was 46.1%; for `CCCCCCCCCCCSc1nc(NCCCCCCCCC)nc(NCC2CCN(C)CC2)n1` [Compound D10S11N9], 87.7%; for `CCCCCCCCCCCNc1nc(NCC2CCN(C)CC2)nc(SCCCCCCCCCCC)n1` [Compound D10S11N11], 27.7%.

Regarding `CCCCCCCCCCCCNc1nc(NCC2CCN(C)CC2)nc(SCCCCCCCCCCC)n1` [Compound D10S11N12], the “Absolute mRNA transfection efficiency” value was 24.7%. On to `CCCCCCCCCCCCCNc1nc(NCC2CCN(C)CC2)nc(SCCCCCCCCCCC)n1` [Compound D10S11N13], for which the “Absolute mRNA transfection efficiency” value stood at 10.4%.

As for `CCCCCCCCCCCCCCCNc1nc(NCC2CCN(C)CC2)nc(SCCCCCCCCCCC)n1` [Compound D10S11N15], the “Absolute mRNA transfection efficiency” value was 18.6%. As for `CCCCCCCCCCCCCCCCNc1nc(NCC2CCN(C)CC2)nc(SCCCCCCCCCCC)n1` [Compound D10S11N16], the figure is 10.4%. As for `CCCCCCCCCCCCCCCCCCNc1nc(NCC2CCN(C)CC2)nc(SCCCCCCCCCCC)n1` [Compound D10S11N18], the “Absolute mRNA transfection efficiency” value is 9.6%. For `CCCCCCCCCCCCSc1nc(NCCCCCC)nc(NCC2CCN(C)CC2)n1` [Compound D10S12N6] the value was 0.2%.

`CCCCCCCCCCCCSc1nc(NCCCCCCC)nc(NCC2CCN(C)CC2)n1` [Compound D10S12N7]: the “Absolute mRNA transfection efficiency” value is reported as 1.7%.

`CCCCCCCCCCCCSc1nc(NCCCCCCCC)nc(NCC2CCN(C)CC2)n1` [Compound D10S12N8]: the “Absolute mRNA transfection efficiency” value worked out at 12.9%.

On to `CCCCCCCCCCCCSc1nc(NCCCCCCCCC)nc(NCC2CCN(C)CC2)n1` [Compound D10S12N9], for which the “Absolute mRNA transfection efficiency” value turned out to be 17.5%. For `CCCCCCCCCCCCSc1nc(NCCCCCCCCCCC)nc(NCC2CCN(C)CC2)n1` [Compound D10S12N11] the value was 26.6%; for `CCCCCCCCCCCCNc1nc(NCC2CCN(C)CC2)nc(SCCCCCCCCCCCC)n1` [Compound D10S12N12], 31.5%. For `CCCCCCCCCCCCCNc1nc(NCC2CCN(C)CC2)nc(SCCCCCCCCCCCC)n1` [Compound D10S12N13], the “Absolute mRNA transfection efficiency” value amounted to 1.8%.

For the molecule `CCCCCCCCCCCCCCCNc1nc(NCC2CCN(C)CC2)nc(SCCCCCCCCCCCC)n1` [Compound D10S12N15], the “Absolute mRNA transfection efficiency” value was determined as 4.1%.

Regarding `CCCCCCCCCCCCCCCCNc1nc(NCC2CCN(C)CC2)nc(SCCCCCCCCCCCC)n1` [Compound D10S12N16], the “Absolute mRNA transfection efficiency” value is listed as 3.4%.

For the molecule `CCCCCCCCCCCCCCCCCCNc1nc(NCC2CCN(C)CC2)nc(SCCCCCCCCCCCC)n1` [Compound D10S12N18], the “Absolute mRNA transfection efficiency” value was found to be 4.1%. On to `CCCCCCCCCCCCCCSc1nc(NCCCCCC)nc(NCC2CCN(C)CC2)n1` [Compound D10S14N6], for which the “Absolute mRNA transfection efficiency” value was determined as 41.9%. As for `CCCCCCCCCCCCCCSc1nc(NCCCCCCC)nc(NCC2CCN(C)CC2)n1` [Compound D10S14N7], the figure is 55.0%; as for `CCCCCCCCCCCCCCSc1nc(NCCCCCCCC)nc(NCC2CCN(C)CC2)n1` [Compound D10S14N8], 43.8%; as for `CCCCCCCCCCCCCCSc1nc(NCCCCCCCCC)nc(NCC2CCN(C)CC2)n1` [Compound D10S14N9], 54.2%. As for `CCCCCCCCCCCCCCSc1nc(NCCCCCCCCCCC)nc(NCC2CCN(C)CC2)n1` [Compound D10S14N11], the figure is 21.4%. For `CCCCCCCCCCCCCCSc1nc(NCCCCCCCCCCCC)nc(NCC2CCN(C)CC2)n1` [Compound D10S14N12] the value was 6.9%. In the case of `CCCCCCCCCCCCCCSc1nc(NCCCCCCCCCCCCC)nc(NCC2CCN(C)CC2)n1` [Compound D10S14N13], the “Absolute mRNA transfection efficiency” value was 11.7%. For `CCCCCCCCCCCCCCCNc1nc(NCC2CCN(C)CC2)nc(SCCCCCCCCCCCCCC)n1` [Compound D10S14N15] the value was 3.3%; for `CCCCCCCCCCCCCCCCNc1nc(NCC2CCN(C)CC2)nc(SCCCCCCCCCCCCCC)n1` [Compound D10S14N16], 3.0%; for `CCCCCCCCCCCCCCCCCCNc1nc(NCC2CCN(C)CC2)nc(SCCCCCCCCCCCCCC)n1` [Compound D10S14N18], 2.6%. For `CCCCCCCCCCCCCCCSc1nc(NCCCCCC)nc(NCC2CCN(C)CC2)n1` [Compound D10S15N6] the value was 18.4%. For `CCCCCCCCCCCCCCCSc1nc(NCCCCCCC)nc(NCC2CCN(C)CC2)n1` [Compound D10S15N7] the value was 22.1%.
